The values below come from ChEMBL document CHEMBL1201862, “PubChem BioAssay data set” (2004).

Values joined by “and” are separate entries in the source; they are usually repeats but may differ in a detail not shown here. Equal entries are not always repeated. Active and inactive are the calls of the source. Bounds are passed on as bounds.

Test [1] is described as follows: RKO cell viability reduction, dose response, CellTiter-Glo luminescence (AID 1117322). Type of test: functional. In general terms: In ATP-based viability assays light output follows the ATP content of the culture.
Test [2] addresses T1, Fibrinogen beta chain (Homo sapiens, UniProt P02675).
T1 sequence (P02675 whole entry): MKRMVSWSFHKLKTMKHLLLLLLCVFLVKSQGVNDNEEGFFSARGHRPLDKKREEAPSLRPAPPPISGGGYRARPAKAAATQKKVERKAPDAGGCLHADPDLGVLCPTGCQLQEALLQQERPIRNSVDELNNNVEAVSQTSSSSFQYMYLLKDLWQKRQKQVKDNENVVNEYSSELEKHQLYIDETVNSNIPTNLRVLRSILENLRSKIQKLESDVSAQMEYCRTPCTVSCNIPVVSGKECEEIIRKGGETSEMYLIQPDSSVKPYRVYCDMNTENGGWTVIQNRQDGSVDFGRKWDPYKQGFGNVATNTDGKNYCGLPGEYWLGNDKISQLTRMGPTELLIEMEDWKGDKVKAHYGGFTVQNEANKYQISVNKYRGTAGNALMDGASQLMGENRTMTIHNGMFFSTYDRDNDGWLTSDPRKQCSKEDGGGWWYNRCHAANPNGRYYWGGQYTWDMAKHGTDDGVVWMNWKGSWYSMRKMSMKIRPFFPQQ
Nature of the test: Fluorescence polarization-based biochemical high throughput dose response assay to identify inhibitors that disrupt the binding of a cyclic peptide (Tn6) to the fibrin proteolytic product D-Dimer and fragment E complex [DD(E )].

Test [3] can be described thus: SNU-C1 cell viability reduction, dose response, CellTiter-Glo luminescence (AID 1117323). Type of test: functional, cell-based.
A short description of test [4]: human group III sPLA2 inhibitors, dose response, biochemical, QFRET, IC50 (AID 743457).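 Also: green fluorescence rise as the enzyme cleaves BODIPY PC-A2 in liposomes; potency for inhibition of the enzyme.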
The nature of test [5]: cytotoxicity toward Colo320 cells – cell-based, CellTiter-Glo luminescence, IC50, dose response (AID 1117334). The format is functional. As to conditions: COLO 320.
A short description of test [6]: cytotoxicity toward HCT116 cells – cell-based, CellTiter-Glo luminescence, IC50, dose response (AID 1117332). The format is functional. As to conditions: HCT-116.
The target of the next test is Cytochrome P450 2D6 (Homo sapiens, UniProt P10635).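 Also: CYP2D6 member of a cytochrome P450 panel assay.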
The nature of test [7]: Glucagon-like peptide 1 release potency, NCI-H716 cell line, dose-response, half-maximal inhibitory concentration (AID 1117344). Type of test: functional, cell-based.
The nature of test [8]: half-maximal inhibitory concentration for glucagon-like peptide-1 release, STC-1 cell line, dose-response (AID 1117345). The format is functional, cell-based.
Test [9] can be described thus: Concentration-dependent survival of SW480 colon cancer line, luminescence detection with CellTiter-Glo, half-maximal inhibitory concentration (AID 1117338). The format is functional.
For test [10], the target named is T1, Fibrinogen beta chain. Nature of the test: Fluorescence polarization-based biochemical high throughput dose response assay to identify inhibitors that disrupt the binding of a cyclic peptide (Tn7) to the fibrin proteolytic product D-Dimer and fragment E complex [DD(E )].
Test [11] can be described thus: CellTiter-Glo luminescent dose response of DLD-1 viability loss (AID 1117352). Type of test: functional.
For test [12], the target named is Serine/threonine-protein phosphatase PP1-alpha catalytic subunit (Homo sapiens, UniProt P62136). Kind of test: PP1 phosphatase inhibitors, dose response, biochemical, fluorescence (AID 2394).
For a further test, the target named is T2, Protein RecA (Mycobacterium tuberculosis, UniProt P9WHJ3).
T2 sequence (P9WHJ3 whole entry): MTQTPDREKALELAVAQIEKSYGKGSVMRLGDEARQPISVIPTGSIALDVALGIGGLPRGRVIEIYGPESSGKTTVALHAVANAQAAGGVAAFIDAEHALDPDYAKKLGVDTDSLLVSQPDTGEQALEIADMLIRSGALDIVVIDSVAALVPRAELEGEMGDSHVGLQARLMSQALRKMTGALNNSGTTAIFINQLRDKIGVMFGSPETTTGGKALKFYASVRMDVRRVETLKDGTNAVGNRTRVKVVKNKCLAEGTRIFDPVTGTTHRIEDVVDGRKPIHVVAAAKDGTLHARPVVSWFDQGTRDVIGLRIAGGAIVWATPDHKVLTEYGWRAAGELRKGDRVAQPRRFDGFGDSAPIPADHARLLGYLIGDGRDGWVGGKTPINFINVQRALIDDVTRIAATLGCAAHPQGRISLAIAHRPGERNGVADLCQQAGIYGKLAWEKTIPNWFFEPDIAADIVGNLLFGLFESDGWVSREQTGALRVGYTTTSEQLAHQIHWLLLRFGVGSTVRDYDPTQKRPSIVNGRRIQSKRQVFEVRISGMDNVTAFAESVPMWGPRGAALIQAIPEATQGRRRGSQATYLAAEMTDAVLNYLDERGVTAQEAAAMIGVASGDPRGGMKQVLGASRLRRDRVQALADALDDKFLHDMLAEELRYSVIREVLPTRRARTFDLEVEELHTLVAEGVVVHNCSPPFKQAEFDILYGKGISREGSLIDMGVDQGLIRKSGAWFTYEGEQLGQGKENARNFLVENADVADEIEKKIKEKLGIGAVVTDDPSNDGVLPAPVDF
Kind of test: Fluorescence Cell-Free Homogeneous Dose Retest to Identify Inhibitors of RecA-Intein Splicing Activity. [Related pubchem assays (depositor defined):AID2097, AID2223, AID489010, AID492950]. The format is functional.

For test [13], the target named is Serine/threonine-protein phosphatase (Homo sapiens, UniProt Q9BPW0). Nature of the test: PP5 phosphatase inhibitors, dose response, biochemical, fluorescence (AID 2395).
The next test addresses Nonstructural protein 1 (Influenza A virus, UniProt Q194T2). The format is functional, Influenza A virus (A/California/07/2009(H1N1)).
In test [14] the target is T3, Apoptotic protease-activating factor 1 (Homo sapiens, UniProt O14727).
T3 sequence (O14727 whole entry): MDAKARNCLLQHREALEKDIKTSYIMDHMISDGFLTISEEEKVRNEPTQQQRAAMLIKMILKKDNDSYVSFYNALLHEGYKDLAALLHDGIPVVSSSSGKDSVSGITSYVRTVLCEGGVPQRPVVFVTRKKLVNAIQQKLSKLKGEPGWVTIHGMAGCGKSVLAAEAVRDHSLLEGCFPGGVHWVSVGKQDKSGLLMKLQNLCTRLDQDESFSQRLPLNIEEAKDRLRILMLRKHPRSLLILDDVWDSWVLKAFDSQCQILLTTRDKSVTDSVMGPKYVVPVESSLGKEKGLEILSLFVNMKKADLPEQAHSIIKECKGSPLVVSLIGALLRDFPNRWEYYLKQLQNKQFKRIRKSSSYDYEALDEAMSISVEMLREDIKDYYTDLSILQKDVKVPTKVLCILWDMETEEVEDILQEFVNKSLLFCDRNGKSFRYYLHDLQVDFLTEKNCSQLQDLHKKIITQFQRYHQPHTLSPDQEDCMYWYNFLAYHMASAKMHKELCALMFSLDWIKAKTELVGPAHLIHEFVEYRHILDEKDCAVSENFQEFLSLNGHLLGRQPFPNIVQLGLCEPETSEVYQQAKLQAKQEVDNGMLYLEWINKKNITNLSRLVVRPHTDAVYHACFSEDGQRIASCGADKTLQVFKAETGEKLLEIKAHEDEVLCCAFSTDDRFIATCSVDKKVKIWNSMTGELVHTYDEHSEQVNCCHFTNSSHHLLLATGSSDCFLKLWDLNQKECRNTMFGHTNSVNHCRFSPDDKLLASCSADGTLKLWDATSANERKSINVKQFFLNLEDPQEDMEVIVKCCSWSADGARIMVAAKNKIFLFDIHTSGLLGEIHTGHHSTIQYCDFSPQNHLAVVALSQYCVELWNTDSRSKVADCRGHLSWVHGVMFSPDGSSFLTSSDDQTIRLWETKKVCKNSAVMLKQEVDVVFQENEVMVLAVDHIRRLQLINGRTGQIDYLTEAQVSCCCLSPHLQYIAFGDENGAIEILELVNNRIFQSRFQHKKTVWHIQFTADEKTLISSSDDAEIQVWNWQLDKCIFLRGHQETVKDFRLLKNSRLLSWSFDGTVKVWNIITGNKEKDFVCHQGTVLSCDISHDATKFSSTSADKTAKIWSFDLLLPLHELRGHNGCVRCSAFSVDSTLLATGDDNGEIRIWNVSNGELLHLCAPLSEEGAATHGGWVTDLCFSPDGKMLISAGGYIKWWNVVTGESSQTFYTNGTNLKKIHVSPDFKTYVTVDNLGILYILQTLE
Type of test: functional.

In test [15] the target is T4, Replicative DNA helicase DnaB (Mycobacterium tuberculosis, UniProt P9WMR3).
T4 sequence (P9WMR3 whole entry): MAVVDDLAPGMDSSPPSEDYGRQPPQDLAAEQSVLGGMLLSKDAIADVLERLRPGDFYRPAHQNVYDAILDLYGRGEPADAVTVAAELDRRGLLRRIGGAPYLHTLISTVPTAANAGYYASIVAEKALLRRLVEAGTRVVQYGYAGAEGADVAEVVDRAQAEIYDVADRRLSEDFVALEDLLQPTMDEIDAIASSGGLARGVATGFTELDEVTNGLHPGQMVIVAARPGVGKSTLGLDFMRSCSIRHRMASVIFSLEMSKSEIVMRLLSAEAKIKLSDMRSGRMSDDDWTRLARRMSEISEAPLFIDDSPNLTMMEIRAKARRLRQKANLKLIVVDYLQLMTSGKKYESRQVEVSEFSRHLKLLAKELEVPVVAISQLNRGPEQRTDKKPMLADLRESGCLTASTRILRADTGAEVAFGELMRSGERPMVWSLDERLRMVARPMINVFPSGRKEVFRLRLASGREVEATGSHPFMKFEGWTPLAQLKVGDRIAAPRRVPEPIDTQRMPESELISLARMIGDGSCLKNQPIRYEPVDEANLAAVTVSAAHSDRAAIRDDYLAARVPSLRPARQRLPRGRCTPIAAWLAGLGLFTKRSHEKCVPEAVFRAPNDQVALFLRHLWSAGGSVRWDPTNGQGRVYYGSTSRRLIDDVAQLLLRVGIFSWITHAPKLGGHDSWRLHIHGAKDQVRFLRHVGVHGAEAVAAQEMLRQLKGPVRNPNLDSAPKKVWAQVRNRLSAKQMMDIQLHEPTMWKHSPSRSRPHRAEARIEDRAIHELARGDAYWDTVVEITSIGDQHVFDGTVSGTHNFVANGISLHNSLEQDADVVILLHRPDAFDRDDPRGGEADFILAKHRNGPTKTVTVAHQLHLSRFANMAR
Nature of the test: DnaB intein splicing inhibitors, dose response, biochemical, cell-free fluorescence (AID 449749). The format is functional.

Test [16] concerns the target G-protein coupled receptor 183 (Homo sapiens, UniProt P32249). Kind of test: SAR confirmation of small molecule antagonists of the EBI2 receptor via a luminescent beta-arrestin assa. Type of test: functional.
A short description of test [17]: Luminescence Cell-Based Dose Response HTS to Identify Activators of Luciferase Translation or Activity in H4 […] Cells. [Related pubchem assays: 1829 (Project Summary), 1814 (Primary HTS)]. The format is functional.
The nature of test [18]: Luminescence Cell-Based Dose Confirmation HTS to Identify Activators of 5'UTR Stem-Loop Driven Alpha-Synuclein mRNA Translation in H4 Neuroglioblastoma Cells. [Related pubchem assays: 1829 (Project Summary), 1814 (Primary HTS)]. Type of test: functional.
The subject of another test is H4. Nature of the test: Luminescence Cell-Based Dose Response HTS to Identify Activators of 5'UTR Stem-Loop Driven Prion Protein mRNA Translation in H4 Neuroglioblastoma Cells. [Related pubchem assays: 1829 (Project Summary), 1814 (Primary HTS)]. The settings on record: Homo sapiens. The format is functional.
The nature of test [19]: microbe, parasite or virus in culture. The settings on record: Mycobacterium tuberculosis. Type of test: functional.
A short description of test [20]: Luminescent dose response cell-based high throughput screening assay for inhibitors of the Janus kinase 2 mutant JAK2V617F. [Related pubchem assays: 1446 (Primary screen.), 1521 (Confirmation assay.), 1486 (Counter screen.)]. The format is functional. For orientation: The purpose of a counterscreen is to sort out artefacts and off-target activity.
The nature of test [21]: HEp-2 cell cytotoxicity, dose response, cytotoxicity control for RSV inhibitor project, HTS (AID 2410). Type of test: functional. As to conditions: human respiratory syncytial virus.

Chain of G-protein coupled receptor 183 (P32249 whole entry): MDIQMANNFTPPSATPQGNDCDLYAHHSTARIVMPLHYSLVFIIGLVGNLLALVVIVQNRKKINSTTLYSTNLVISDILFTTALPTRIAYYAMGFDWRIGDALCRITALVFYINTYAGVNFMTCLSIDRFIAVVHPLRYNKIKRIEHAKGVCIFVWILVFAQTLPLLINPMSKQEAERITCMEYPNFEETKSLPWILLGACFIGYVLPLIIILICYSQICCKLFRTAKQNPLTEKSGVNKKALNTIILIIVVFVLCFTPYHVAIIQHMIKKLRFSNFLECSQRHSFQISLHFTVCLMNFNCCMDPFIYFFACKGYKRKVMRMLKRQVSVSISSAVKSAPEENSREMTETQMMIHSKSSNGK
Chain of Nonstructural protein 1 (Q194T2 whole entry): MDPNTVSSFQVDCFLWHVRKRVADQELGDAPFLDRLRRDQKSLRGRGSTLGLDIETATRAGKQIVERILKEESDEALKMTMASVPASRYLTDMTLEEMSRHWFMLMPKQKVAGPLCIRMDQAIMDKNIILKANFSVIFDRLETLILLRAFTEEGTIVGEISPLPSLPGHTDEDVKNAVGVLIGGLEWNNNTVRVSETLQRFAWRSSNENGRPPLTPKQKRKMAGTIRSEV
Chain of Serine/threonine-protein phosphatase PP1-alpha catalytic subunit (P62136 whole entry): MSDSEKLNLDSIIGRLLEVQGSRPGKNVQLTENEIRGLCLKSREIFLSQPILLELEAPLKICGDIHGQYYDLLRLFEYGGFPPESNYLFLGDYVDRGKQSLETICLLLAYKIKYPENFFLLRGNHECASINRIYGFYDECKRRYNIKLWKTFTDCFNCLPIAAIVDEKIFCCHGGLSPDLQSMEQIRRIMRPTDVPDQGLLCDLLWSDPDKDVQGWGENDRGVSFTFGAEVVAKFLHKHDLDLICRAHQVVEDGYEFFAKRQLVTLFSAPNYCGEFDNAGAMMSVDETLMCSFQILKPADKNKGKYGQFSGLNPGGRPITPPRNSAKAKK
Chain of Serine/threonine-protein phosphatase (Q9BPW0 whole entry): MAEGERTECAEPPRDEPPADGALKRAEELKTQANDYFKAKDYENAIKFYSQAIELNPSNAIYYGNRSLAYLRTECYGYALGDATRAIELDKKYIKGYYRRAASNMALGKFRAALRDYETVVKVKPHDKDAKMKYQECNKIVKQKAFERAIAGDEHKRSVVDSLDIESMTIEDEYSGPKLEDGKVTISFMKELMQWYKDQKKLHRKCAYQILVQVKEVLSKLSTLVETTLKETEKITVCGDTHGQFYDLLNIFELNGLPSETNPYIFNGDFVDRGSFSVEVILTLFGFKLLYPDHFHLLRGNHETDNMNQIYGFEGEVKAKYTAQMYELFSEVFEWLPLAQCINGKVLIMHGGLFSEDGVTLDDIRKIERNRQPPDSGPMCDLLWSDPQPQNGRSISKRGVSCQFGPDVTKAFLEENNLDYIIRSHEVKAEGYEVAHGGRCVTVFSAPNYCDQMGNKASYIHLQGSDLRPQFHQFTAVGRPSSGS
Chain of Cytochrome P450 2D6 (P10635 whole entry): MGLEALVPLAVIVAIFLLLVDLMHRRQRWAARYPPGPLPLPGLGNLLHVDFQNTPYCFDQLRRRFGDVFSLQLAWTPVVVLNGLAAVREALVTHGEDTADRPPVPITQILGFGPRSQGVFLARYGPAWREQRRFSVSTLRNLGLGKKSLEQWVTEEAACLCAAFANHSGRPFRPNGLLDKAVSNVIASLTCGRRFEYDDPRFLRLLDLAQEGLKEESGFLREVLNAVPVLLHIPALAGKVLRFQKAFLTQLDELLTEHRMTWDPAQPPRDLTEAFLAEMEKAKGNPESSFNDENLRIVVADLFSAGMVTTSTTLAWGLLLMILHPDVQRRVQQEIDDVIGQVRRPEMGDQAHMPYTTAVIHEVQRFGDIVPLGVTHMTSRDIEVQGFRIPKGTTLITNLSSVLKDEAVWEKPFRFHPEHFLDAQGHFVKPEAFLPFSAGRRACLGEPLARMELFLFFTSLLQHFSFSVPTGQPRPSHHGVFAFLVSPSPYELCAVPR

In general, IC50 refers to the concentration needed to halve the response being measured. In general, AC50 refers to the midpoint of the concentration-response curve, whichever way the signal moves. On to `C[n+]1cc2c3c(ccc2c2ccc4cc5c(cc4c21)OCO5)OCO3`, for which the IC50 in [1] is 265 nM (active); on Fibrinogen beta chain [2], 24.2 µM (inactive); in [3] it was 316 nM (active); in test [4], 51.8 µM (inactive); in test [5], 350 nM (active); in test [6], 525 nM (active). The IC50 in [7] was > 40 µM (inactive); in test [8], > 40 µM (inactive); in test [9] it was 379 nM (active); on Fibrinogen beta chain [10], > 83.1 µM (inactive); in test [11], 576 nM (active). For the same compound, the AC50 on Cytochrome P450 2D6 was 31.6 µM (inconclusive) and 7.94 µM (inconclusive).

For orientation: EC50 means the concentration at which the effect is half-maximal. For `Cc1ccc(NC2=C(N3CCOCC3)C(=O)c3ccccc3C2=O)cc1`, the IC50 in test [12] was > 67 µM (not active); in test [13] it was 20.9 µM (not active); at Nonstructural protein 1 it was 7.74 µM (active); in [14], 19.4 µM (active). The concentration giving a half-maximal response (EC50) at Protein RecA was 15.7 µM (active). In addition, the concentration at half-maximal activity (AC50) in test [15] was 10.7 µM (active).

Take `Cc1cc(C)cc(CN2CCN(C(=O)/C=C/c3ccc(Br)cc3)CC2)c1`: the half-maximal inhibitory concentration (IC50) in test [16] is 6.4 nM (active).

For the compound `O=C(c1ccc(Br)cc1)N1CCN(C(=O)c2ccccc2Cl)CC1`, the IC50 in test [16] is > 1000 nM (inactive).

`O=C1C(c2ccccc2)=[N+]([O-])c2ccccc21`: the values for the EC50 (in [17]; in [18]; in the test on H4) were 36.4 µM (active), 12.7 µM (active) and 20 µM (active), respectively. Moreover, the IC50 in [12] was 2.67 µM (active); in [13], 10.3 µM (not active); at Nonstructural protein 1, 45.5 µM (active); in test [14] it was 5.8 µM (active).

With `O=C(CCl)NCc1cc(-c2ccc(Cl)cc2)no1`, the figures for the CC50 in test [19] and in [21] were 9.8 µM (active) and 4.01 µM (active), respectively. Besides, the IC50 in [20] was 1.23 µM (active).
